Measurements published in patent publication US12226412B2, “Heteroaryl-ketone fused azadecalin glucocorticoid receptor modulators” (Corcept Therapeutics, Inc., priority 2012, dated 2025).
Like-named read-outs stand apart in the source and are kept apart here.

Legend:
[1] = tested on: induction of TAT by dexamethasone in HepG2 cells; test: HepG2 tyrosine aminotransferase (TAT) assay; format: cell-based, human
[2] = biological target: T1, human recombinant GR (Homo sapiens, UniProt P04150); test: Human glucocorticoid receptor (GR) fluorescence polarisation (FP) binding assay
T1 construct: purchased PanVera P2812
T1 sequence (P04150 1-777): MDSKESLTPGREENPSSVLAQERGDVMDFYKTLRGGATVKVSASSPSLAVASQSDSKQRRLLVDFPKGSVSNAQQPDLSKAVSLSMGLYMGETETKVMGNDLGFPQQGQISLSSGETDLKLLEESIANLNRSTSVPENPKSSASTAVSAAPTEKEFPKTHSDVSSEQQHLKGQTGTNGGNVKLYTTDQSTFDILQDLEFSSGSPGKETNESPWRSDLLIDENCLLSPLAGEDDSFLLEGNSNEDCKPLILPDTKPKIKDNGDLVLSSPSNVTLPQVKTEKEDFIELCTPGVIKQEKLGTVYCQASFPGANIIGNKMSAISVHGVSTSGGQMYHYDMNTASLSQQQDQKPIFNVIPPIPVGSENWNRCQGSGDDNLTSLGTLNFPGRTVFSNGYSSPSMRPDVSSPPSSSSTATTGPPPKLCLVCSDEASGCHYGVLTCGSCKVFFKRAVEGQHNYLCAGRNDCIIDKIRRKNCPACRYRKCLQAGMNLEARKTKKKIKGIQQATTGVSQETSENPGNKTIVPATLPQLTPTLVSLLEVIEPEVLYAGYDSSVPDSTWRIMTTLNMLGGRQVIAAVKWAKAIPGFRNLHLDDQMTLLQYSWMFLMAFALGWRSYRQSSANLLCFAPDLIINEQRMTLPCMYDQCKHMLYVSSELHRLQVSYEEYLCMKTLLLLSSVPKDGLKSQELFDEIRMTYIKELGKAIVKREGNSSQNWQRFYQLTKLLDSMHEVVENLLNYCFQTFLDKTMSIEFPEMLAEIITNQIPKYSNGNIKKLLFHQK
Outline: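 Competition fluorescence polarisation: 0.5 nM GS Red labelled glucocorticoid and 1 nM recombinant human GR with 8-point half-log compound series, 1% DMSO, 4 h room temperature, potassium phosphate pH 7.4 buffer with molybdate, EDTA, DTT. Affinity derived from the drop in polarisation, normalised to blank wells.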

[3] = HepG2 cells, challenge of 100 nM dexamethasone, Ki from IC50 by Cheng and Prusoff equation
[4] = human recombinant GR, fluorescence polarisation binding assay, read-out: GR binding

| Ki [2, 4] [nM] | Structure (SMILES) | Ki [1, 3] [nM] | Ki [1] [nM] | Ki [2] [nM] |
| --- | --- | --- | --- | --- |
| < 0.5 | CN1CCOc2cc(S(=O)(=O)N3CCC4=Cc5c(cnn5-c5ccc(F)cc5)C[C@]4(C(=O)c4ccccn4)C3)cnc21 [Example 11AB, (R)-(1-(4-fluorophenyl)-6-((4-methyl-3,4-dihydro-2H-pyrido [3,2-b][1,4]oxazin-7-yl)sulfonyl)-4,4a,5,6,7,8-hexahydro-1H-pyrazolo[3,4-g]isoquinolin-4a-yl)(pyridin-2-yl)methanone] | 20 to 100 | – | – |
| < 0.5 | O=C(c1ccccn1)[C@]12Cc3cnn(-c4ccc(F)cc4)c3C=C1CCN(S(=O)(=O)c1ccc(F)c(F)c1F)C2 [Example 11AC, (R)-(1-(4-fluorophenyl)-6-((2,3,4-trifluorophenyl)sulfonyl)-4,4a,5,6,7,8-hexahydro-1H-pyrazolo[3,4-g]isoquinolin-4a-yl)(pyridin-2-yl)methanone] | < 20 | – | – |
| < 0.5 | O=C(c1ccccn1)[C@]12Cc3cnn(-c4ccc(F)cc4)c3C=C1CCN(S(=O)(=O)c1cccc(C(F)(F)F)n1)C2 [Example 11AD, (R)-(1-(4-fluorophenyl)-6-((6-(trifluoromethyl)pyridin-2-yl)sulfonyl)-4,4a,5,6,7,8-hexahydro-1H-pyrazolo[3,4-g]isoquinolin-4a-yl)(pyridin-2-yl)methanone] | < 20 | – | – |
| < 0.5 | Cc1ccnc(C(=O)[C@]23Cc4cnn(-c5ccc(F)cc5)c4C=C2CCN(S(=O)(=O)c2cccc(C(F)(F)F)n2)C3)c1 [Example 11AE, (R)-(1-(4-fluorophenyl)-6-((6-(trifluoromethyl)pyridin-2-yl)sulfonyl)-4,4a,5,6,7,8-hexahydro-1H-pyrazolo[3,4-g]isoquinolin-4a-yl)(4-methylpyridin-2-yl)methanone] | < 20 | – | – |
| – | O=C(c1ccccn1)[C@]12Cc3cnn(-c4ccc(F)cc4)c3C=C1CCN(S(=O)(=O)c1ccc(Cl)c(Cl)c1)C2 [Example 11AF, (R)-(6-((3,4-dichlorophenyl)sulfonyl)-1-(4-fluorophenyl)-4,4a,5,6,7,8-hexahydro-1H-pyrazolo[3,4-g]isoquinolin-4a-yl)(pyridin-2-yl)methanone] | – | < 20 | < 0.5 |
| < 0.5 | Cc1ccnc(C(=O)[C@]23Cc4cnn(-c5ccc(F)cc5)c4C=C2CCN(S(=O)(=O)c2cccc(C(F)(F)F)c2)C3)c1 [Example 11AG, (R)-(1-(4-fluorophenyl)-6-((3-(trifluoromethyl)phenyl)sulfonyl)-4,4a,5,6,7,8-hexahydro-1H-pyrazolo[3,4-g]isoquinolin-4a-yl)(4-methylpyridin-2-yl)methanone] | < 20 | – | – |
| < 0.5 | CCn1cc(S(=O)(=O)N2CCC3=Cc4c(cnn4-c4ccc(F)cc4)C[C@]3(C(=O)c3cc(C)ccn3)C2)cn1 [Example 11AH, (R)-(6-((1-ethyl-1H-pyrazol-4-yl)sulfonyl)-1-(4-fluorophenyl)-4,4a,5,6,7,8-hexahydro-1H-pyrazolo[3,4-g]isoquinolin-4a-yl)(4-methylpyridin-2-yl)methanone] | < 20 | – | – |
| < 0.5 | Cc1ccnc(C(=O)[C@]23Cc4cnn(-c5ccc(F)cc5)c4C=C2CCN(S(=O)(=O)c2cnn(C)c2C)C3)c1 [Example 11AI, (R)-(6-((1,5-dimethyl-1H-pyrazol-4-yl)sulfonyl)-1-(4-fluorophenyl)-4,4a,5,6,7,8-hexahydro-1H-pyrazolo[3,4-g]isoquinolin-4a-yl)(4-methylpyridin-2-yl)methanone] | < 20 | – | – |
| < 0.5 | Cc1ccnc(C(=O)[C@]23Cc4cnn(-c5ccc(F)cc5)c4C=C2CCN(S(=O)(=O)c2ccnn2C)C3)c1 [Example 11AJ, (R)-(1-(4-fluorophenyl)-6-((1-methyl-1H-pyrazol-5-yl)sulfonyl)-4,4a,5,6,7,8-hexahydro-1H-pyrazolo[3,4-g]isoquinolin-4a-yl)(4-methylpyridin-2-yl)methanone] | < 20 | – | – |
